Results: patent publication US11584712B2, “Alkylamine-substituted perthiocarbamates as dual precursors to hydropersulfide and carbonyl sulfide” (The Johns Hopkins University, priority 2020, dated 2023)
Where “and” joins values, the source holds several entries; their conditions need not be identical. Equal values may be shown once.

Assays:
[1] = RSSH generation and quantification of cyclic ureas by UPLC-MS with HPE-IAM or NEM trap; assay type: physicochemical; conditions: precursor 10 μM, pH 7.4 ammonium bicarbonate buffer; for yield of cyclic urea byproduct: HPE-IAM 500 μM (50 equiv.), 37° C.; for cyclic urea byproduct formation: HPE-IAM 500 μM, 37° C. (7a 15 min, 7c 7 h)
Procedure: Precursor 1a was dissolved in DMSO to afford a 1 mM stock solution. Similarly, HPE-IAM and N-ethyl maleimide (NEM) were independently dissolved in DMSO to obtain 50 mM stock solutions. To a 20 mL scintillation vial, HPE-IAM or NEM (30 μL, 50 mM) was added in pH 7.4 ammonium bicarbonate buffer (2.94 mL) containing the DTPA (100 μM). The resulting solution was pre-incubated at 37° C. for 10 min. Precursor 1a (30 μL, 1 mM) was then added into the mixture and incubated for 15 min at 37° C. An aliquot of the reaction mixture (500 μL) was withdrawn, 4-hydroxyphenylacetamide (10 μM) was added as internal standard, and analyzed using UPLC-MS as follows: Mobile phase: 0-1 min 90% water+0% ACN+10% formic acid (0.1%); 1-7.5 min gradient up to 10% water+80% ACN+10% formic acid (0.1%); 7.5-8.4 min 10% water+80% ACN+10% formic acid (0.1%); 8.4-8.5 min gradient up to 90% water+0% ACN+10% formic acid (0.1%), 8.5-10 min 90% water+0% ACN+10% formic acid (0.1%). Flow rate=0.3 mL/min. […] These studies were conducted at least in triplicate and representative spectra are presented.
Precursors 7a-d (10 μM) were independently incubated with HPE-IAM (500 μM) in pH 7.4 ammonium bicarbonate buffer (50 mM) containing DTPA (100 μM) at 37° C. The reaction mixture (500 μL) was analyzed using UPLC-MS. To quantify 2a-d generated from these precursors, a calibration curve of each individual cyclic urea with known concentrations was independently generated.
Precursor 1a was dissolved in DMSO to afford a 1 mM stock solution. Similarly, HPE-IAM was dissolved in DMSO to obtain a 50 mM stock solution. To a 20 mL scintillation vial, HPE-IAM (30 μL, 50 mM) was added in pH 7.4 ammonium bicarbonate buffer (2.94 mL) containing the DTPA (100 μM). The resulting solution was pre-incubated at 37° C. for 10 min. Precursor 1a (30 μL, 1 mM) was then added into the mixture and incubated for 15 min at 37° C. An aliquot of the reaction mixture (500 μL) was withdrawn and analyzed using UPLC-MS as follows: Mobile phase: 0-1 min 90% water+0% ACN+10% formic acid (0.1%); 1-7.5 min gradient up to 10% water+80% ACN+10% formic acid (0.1%); 7.5-8.4 min 10% water+80% ACN+10% formic acid (0.1%); 8.4-8.5 min gradient up to 90% water+0% ACN+10% formic acid (0.1%), 8.5-10 min 90% water+0% ACN+10% formic acid (0.1%). Flow rate=0.3 mL/min. The mass signals for product of RSSH trapping with HPE-IAM were obtained via deconvolution using MassLynx 4.1 software. These studies were conducted at least in triplicate and representative spectra are presented.
Precursors 7a-d (10 μM) were independently incubated with HPE-IAM (500 μM) in pH 7.4 ammonium bicarbonate buffer (50 mM) containing DTPA (100 μM) at 37° C. This reaction mixture was analyzed by UPLC-MS as follows: Mobile phase: 0-1 min 90% water+0% ACN+10% formic acid (0.1%); 1-7.5 min gradient up to 10% water+80% ACN+10% formic acid (0.1%); 7.5-8.4 min 10% water+80% ACN+10% formic acid (0.1%); 8.4-8.5 min gradient up to 90% water+0% ACN+10% formic acid (0.1%), 8.5-10 min 90% water+0% ACN+10% formic acid (0.1%). Flow rate=0.3 mL/min. To quantify 2a-d generated from these precursors, a calibration curve of each individual cyclic urea with known concentrations was independently generated.

[2] = Kinetics of decomposition of 7a and formation of 2a and 9 by UPLC-MS; assay type: physicochemical; conditions: 7a 20 μM, HPE-IAM 1 mM, ammonium bicarbonate buffer 50 mM with DTPA
Procedure: An aliquot of the reaction mixture was withdrawn at the specified time and quenched with 1% formic acid. The curves are the calculated best fits to a single-exponential function. The pseudo-first order rate constants for 7a, 9 and 2a are 0.59±0.02, 0.57±002, and 0.58±0.03 min^−1, respectively;

H9c2 cells = assay: H9c2 cell protection from H2O2-mediated oxidative stress, SYTOX Green nucleic acid stain; assay type: cell-based, rat; conditions: 2 h pretreatment (150 μM for 8), then H2O2 200 μM
Procedure: Cells were seeded at a density of 1×10^4 cells/well. After 24 h, precursor 7b or byproduct 2b is added in 20 μL volumes using DMSO: H2O (<0.01% DMSO). Cells were incubated for 2 h before media was removed and the cells gently washed with PBS (pH 7.4). Then, 180 μL of fresh media and 20 μL H2O2 diluted in H2O were added before cells were incubated for an additional 1 h. After removing this media, 100 μL of media containing 3 μM SYTOX™ Green nucleic acid stain was added, and the cells incubated for 2 h before fluorescence readings were obtained at 485Ex/538Em (Step 1). Finally, an additional 100 μL of media containing 3 μM SYTOX™ and 0.2% Triton X-100 was added in order to permeabilize all cells and incubated for 1 h before fluorescence values measured (Step 2). The relative % cells surviving was calculated as a 100% minus the ratio of the fluorescence value of Step 1 over Step 2 (% cells surviving=100%−(FL538 (Step 1)/FL538 (Step 2)). Fluorescence values for vehicle-treated, non-H2O2-exposed wells were treated as background cell death and this value is added to the % cell survival for each subsequent group.
See Hofgaard et al., 2006, for general procedures. […] After removing this media, 100 μL of media containing 3 μM SYTOX® Green nucleic acid stain was added, and the cells incubated for 2 h before fluorescence readings were obtained at 485Ex/538Em (Step 1). […]

Compound | yield of cyclic urea byproduct [1] [%] | cyclic urea byproduct formation [1] [µM] | pseudo-first order rate constant of RSS-HPE-AM 9 formation [2] | pseudo-first order rate constant of byproduct 2a formation [2] | pseudo-first order rate constant of precursor decomposition [2] [min⁻¹] | protection against H2O2-mediated toxicity (SYTOX) (H9c2 cells)
3-(((3-acetamido-4-methoxy-2-methyl-4-oxobutan-2-yl)disulfannecarbonyl)(methyl)amino)-N-methylpropan-1-aminium [Precursor 7c] | 88 | 8.8 ± 0.2 | – | – | – | –
CNCCN(C)C(=O)SSC(C)(C)C(NC(C)=O)C(=O)OC (centres unmarked) [Precursor 7a, 2-(((3-acetamido-4-methoxy-2-methyl-4-oxobutan-2-yl)disulfannecarbonyl)(methyl)amino)-N-methylethan-1-aminium] | 87 | 8.7 ± 0.4 | 0.58 ± 0.02 min⁻¹ and 0.57 ± 002 min⁻¹ | 0.57 ± 0.02 min⁻¹ and 0.58 ± 0.03 min⁻¹ | 0.59 ± 0.02 | –
COC(=O)C(NC(C)=O)C(C)(C)SSC(=O)N(C)CCN (centres unmarked) [Precursor 7b, 2-(((3-acetamido-4-methoxy-2-methyl-4-oxobutan-2-yl)disulfannecarbonyl)(methyl)amino)ethan-1-aminium] | – | – | – | – | – | protective effects
